In patent publication US11802120B2, “Fused cyclic urea derivatives as CRHR2 antagonist” (RaQualia Pharma Inc., priority 2018, dated 2023):
pIC50: −log10 of the molar value.

Target: T1, human CRHR2-alpha (Homo sapiens, UniProt Q13324)
T1 sequence (Q13324 1-411): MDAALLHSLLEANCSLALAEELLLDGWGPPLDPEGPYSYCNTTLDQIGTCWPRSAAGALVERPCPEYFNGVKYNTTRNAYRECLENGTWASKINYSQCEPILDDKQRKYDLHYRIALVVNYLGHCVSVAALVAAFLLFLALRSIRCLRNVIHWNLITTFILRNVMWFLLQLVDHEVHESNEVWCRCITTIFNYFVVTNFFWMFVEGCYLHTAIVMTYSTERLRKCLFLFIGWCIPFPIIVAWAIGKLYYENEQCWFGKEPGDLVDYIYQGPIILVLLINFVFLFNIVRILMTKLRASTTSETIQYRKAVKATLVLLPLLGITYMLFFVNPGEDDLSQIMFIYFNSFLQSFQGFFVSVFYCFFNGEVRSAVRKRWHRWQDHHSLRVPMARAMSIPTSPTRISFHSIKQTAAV
Test: cAMP functional assay for human CRHR2 (LANCE Ultra cAMP, TR-FRET)
Type: cell-based
Settings: CHO-K1 cells expressing human CRHR2-alpha, agonist human urocortin2 at EC80, cAMP; read-out: IC50 against CRHR2
Summary of the method: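 Inhibition of agonist-driven cAMP was assessed in recombinant CHO-K1 cells at 25° C, using 30 min compound pretreatment and 30 min stimulation with EC80 human urocortin2 (CRHR2) or CRF (CRHR1). IC50 came from dose-response fitting.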

SMILES	pIC50
CNc1ncc(-n2c(=O)n(C[C@H]3CC[C@H](NC(=O)c4cc(Cl)cnc4C)CC3)c3ccccc32)cc1F [Example 552, 5-chloro-N-((1r,4r)-4-((3-(5-fluoro-6-(methylamino)pyridin-3-yl)-2-oxo-2,3-dihydro-1H-benzo[d]imidazol-1-yl)methyl)cyclohexyl)-2-methylnicotinamide]	> 6.52
Cc1ncc(Cl)cc1C(=O)N[C@H]1CC[C@H](Cn2c(=O)n(-c3cnc(OCCO)c(F)c3)c3ccccc32)CC1 [Example 553, 5-chloro-N-((1r,4r)-4-((3-(5-fluoro-6-(2-hydroxyethoxy)pyridin-3-yl)-2-oxo-2,3-dihydro-1H-benzo[d]imidazol-1-yl)methyl)cyclohexyl)-2-methylnicotinamide]	> 6.52
COC1CN(c2ccc(-n3c(=O)n(C[C@H]4CC[C@H](NC(=O)c5cc(Cl)cnc5C(F)F)CC4)c4ccccc43)cn2)C1 [Example 554, 5-chloro-2-(difluoromethyl)-N-((1r,4r)-4-((3-(6-(3-methoxyazetidin-1-yl)pyridin-3-yl)-2-oxo-2,3-dihydro-1H-benzo[d]imidazol-1-yl)methyl)cyclohexyl)nicotinamide]	> 6.52
CNC(=O)c1ncc(-n2c(=O)n(C[C@H]3CC[C@H](NC(=O)c4cc(Cl)cnc4C(F)F)CC3)c3ccccc32)cc1Cl [Example 555, 3-chloro-5-(3-(((1r,4r)-4-(5-chloro-2-(difluoromethyl)nicotinamido)cyclohexyl)methyl)-2-oxo-2,3-dihydro-1H-benzo[d]imidazol-1-yl)-N-methylpicolinamide]	> 6.52
CNC(=O)c1ccc(-n2c(=O)n(C[C@H]3CC[C@H](NC(=O)c4cc(Cl)cnc4C(F)F)CC3)c3ccccc32)c(C)n1 [Example 556, 5-(3-(((1r,4r)-4-(5-chloro-2-(difluoromethyl)nicotina-mido)cyclohexyl)methyl)-2-oxo-2,3-dihydro-1H-benzo[d]imidazol-1-yl)-N,6-dimethylpicolinamide]	> 6.52
CNC(=O)c1ccc(-n2c(=O)n(C[C@H]3CC[C@H](NC(=O)c4c5ccccc5nn4CC(F)(F)F)CC3)c3ccccc32)cn1 [Example 557, N-((1r,4r)-4-((3-(6-(methylcarbamoyl)pyridin-3-yl)-2-oxo-2,3-dihydro-1H-benzo[d]imidazol-1-yl)methyl)cyclohexyl)-2-(2,2,2-trifluoroethyl)-2H-indazole-3-carboxamide]	> 6.52
Cc1cc(N2CCNC2=O)ncc1-n1c(=O)n(C[C@H]2CC[C@H](NC(=O)c3cc(Cl)cnc3C(F)F)CC2)c2ccccc21 [Example 558, 5-chloro-2-(difluoromethyl)-N-((1r,4r)-4-((3-(4-methyl-6-(2-oxoimidazolidin-1-yl)pyridin-3-yl)-2-oxo-2,3-dihydro-1H-benzo[d]imidazol-1-yl)methyl)cyclohexyl) nicotinamide]	> 6.52
CC(=O)Nc1cc(C)c(-n2c(=O)n(C[C@H]3CC[C@H](NC(=O)c4cc(Cl)cnc4C(F)F)CC3)c3ccccc32)cn1 [Example 559, N-((1r,4r)-4-((3-(6-acetamido-4-methylpyridin-3-yl)-2-oxo-2,3-dihydro-1H-benzo[d]imidazol-1-yl)methyl)cyclo-hexyl)-5-chloro-2-(difluoro-methyl)nicotinamide]	> 6.52
CCC(=O)Nc1cc(C)c(-n2c(=O)n(C[C@H]3CC[C@H](NC(=O)c4cc(Cl)cnc4C(F)F)CC3)c3ccccc32)cn1 [Example 560, 5-chloro-2-(difluoromethyl)-N-((1r,4r)-4-((3-(4-methyl-6-propionamidopyridin-3-yl)-2-oxo-2,3-dihydro-1H-benzo [d]imidazol-1-yl)methyl)cyclo-hexyl)nicotinamide]	> 6.52
Cc1cc(N2CCCC2=O)ncc1-n1c(=O)n(C[C@H]2CC[C@H](NC(=O)c3cc(Cl)cnc3C(F)F)CC2)c2ccccc21 [Example 561, 5-chloro-2-(difluoromethyl)-N-((1r,4r)-4-((3-(4-methyl-6-(2-oxopyrrolidin-1-yl)pyridin-3-yl)-2-oxo-2,3-dihydro-1H-benzo[d]imidazol-1-yl)methyl)cyclohexyl) nicotinamide]	> 6.52
CNC(=O)c1ccc(-n2c(=O)n(C[C@H]3CC[C@H](NC(=O)c4cc(Cl)cnc4C(F)F)CC3)c3ccc(F)cc32)cn1 [Example 562, 5-(3-(((1r,4r)-4-(5-chloro-2-(difluororomethyl)nicotina-mido)cyclohexyl)methyl)-6-fluoro-2-oxo-2,3-dihydro-1H-benzo[d]imidazol-1-yl)-N-methylpicolinamide]	> 6.52
O=C(N[C@H]1CC[C@H](Cn2c(=O)n(-c3cnc(OCCO)cn3)c3ccccc32)CC1)c1cc(Cl)cnc1C(F)F [Example 563, 5-chloro-2-(difluoromethyl)-N-((1r,4r)-4-((3-(5-(2-hydroxyethoxy)pyrazin-2-yl)-2-oxo-2,3-dihydro-1H-benzo[d]imidazol-1-yl)methyl)cyclohexyl)nicotinamide]	> 6.52
O=C(N[C@H]1CC[C@H](Cn2c(=O)n(-c3cccc(N4CCOCC4)c3)c3ccccc32)CC1)c1cc(Cl)cnc1C(F)F [Example 566, 5-chloro-2-(difluoromethyl)-N-((1r,4r)-4-((3-(3-morpholinophenyl)-2-oxo-2,3-dihydro-1H-benzo[d]imidazol-1-yl)methyl)cyclo-hexyl)nicotinamide]	> 6.52
Cn1ccnc1-c1ccc(-n2c(=O)n(C[C@H]3CC[C@H](NC(=O)c4cc(Cl)cnc4C(F)F)CC3)c3ccccc32)cc1 [Example 567, 5-chloro-2-(difluoromethyl)-N-((1r,4r)-4-((3-(4-(1-methyl-1H-imidazol-2-yl)phenyl)-2-oxo-2,3-dihydro-1H-benzo[d]imidazol-1-yl)methyl)cyclo-hexyl)nicotinamide]	> 6.52
Cc1ncc(Cl)cc1C(=O)N[C@H]1CC[C@H](Cn2c(=O)n(-c3cccc(-c4cocn4)c3)c3ccccc32)CC1 [Example 568, 5-chloro-2-methyl-N-((1r,4r)-4-((3-(3-(oxazol-4-yl)phenyl)-2-oxo-2,3-dihydro-1H-benzo [d]imidazol-1-yl)methyl)cyclo-hexyl)nicotinamide]	> 6.52
O=C(N[C@H]1CC[C@H](Cn2c(=O)n(-c3ccc(-n4ccnc4)cc3)c3ccccc32)CC1)c1cc(Cl)cnc1C(F)F [Example 569, N-((1r,4r)-4-((3-(4-(1H-imidazol-1-yl)phenyl)-2-oxo-2,3-dihydro-1H-benzo[d]imidazol-1-yl)methyl)cyclo-hexyl)-5-chloro-2-(difluoro-methyl)nicotinamide]	> 6.52
O=C(N[C@H]1CC[C@H](Cn2c(=O)n(-c3ccnc(-n4ccnc4)c3)c3ccccc32)CC1)c1cc(Cl)cnc1C(F)F [Example 570, N-((1r,4r)-4-((3-(2-(1H-imidazol-1-yl)pyridin-4-yl)-2-oxo-2,3-dihydro-1H-benzo [d]imidazol-1-yl)methyl)cyclohexyl)-5-chloro-2-(difluoromethyl)nicotinamide]	> 6.52
O=C(N[C@H]1CC[C@H](Cn2c(=O)n(-c3ccc(NCCO)nc3)c3ccccc32)CC1)c1cc(Cl)cnc1C(F)F [Example 571, 5-chloro-2-(difluoromethyl)-N-((1r,4r)-4-((3-(6-((2-hydroxyethyl)amino)pyridin-3-yl)-2-oxo-2,3-dihydro-1H-benzo[d]imidazol-1-yl)methyl)cyclohexyl)nicotinamide]	> 6.52
